# Laboratory results taken from doi:10.1101/2025.06.04.657800v3, “Advancing Ligand Binding Affinity Prediction with Cartesian Tensor-Based Deep Learning” (biorxiv, 2025).
# Assays:
# ENPP1 [1] = molecular target: T1, ENPP1 (Homo sapiens, UniProt P22413); assay: in vitro enzyme activity assay; assay type: biochemical
# T1 construct: purified ENPP1 protein for PTS, enzyme assay and SPR
# T1 sequence (P22413 1-925): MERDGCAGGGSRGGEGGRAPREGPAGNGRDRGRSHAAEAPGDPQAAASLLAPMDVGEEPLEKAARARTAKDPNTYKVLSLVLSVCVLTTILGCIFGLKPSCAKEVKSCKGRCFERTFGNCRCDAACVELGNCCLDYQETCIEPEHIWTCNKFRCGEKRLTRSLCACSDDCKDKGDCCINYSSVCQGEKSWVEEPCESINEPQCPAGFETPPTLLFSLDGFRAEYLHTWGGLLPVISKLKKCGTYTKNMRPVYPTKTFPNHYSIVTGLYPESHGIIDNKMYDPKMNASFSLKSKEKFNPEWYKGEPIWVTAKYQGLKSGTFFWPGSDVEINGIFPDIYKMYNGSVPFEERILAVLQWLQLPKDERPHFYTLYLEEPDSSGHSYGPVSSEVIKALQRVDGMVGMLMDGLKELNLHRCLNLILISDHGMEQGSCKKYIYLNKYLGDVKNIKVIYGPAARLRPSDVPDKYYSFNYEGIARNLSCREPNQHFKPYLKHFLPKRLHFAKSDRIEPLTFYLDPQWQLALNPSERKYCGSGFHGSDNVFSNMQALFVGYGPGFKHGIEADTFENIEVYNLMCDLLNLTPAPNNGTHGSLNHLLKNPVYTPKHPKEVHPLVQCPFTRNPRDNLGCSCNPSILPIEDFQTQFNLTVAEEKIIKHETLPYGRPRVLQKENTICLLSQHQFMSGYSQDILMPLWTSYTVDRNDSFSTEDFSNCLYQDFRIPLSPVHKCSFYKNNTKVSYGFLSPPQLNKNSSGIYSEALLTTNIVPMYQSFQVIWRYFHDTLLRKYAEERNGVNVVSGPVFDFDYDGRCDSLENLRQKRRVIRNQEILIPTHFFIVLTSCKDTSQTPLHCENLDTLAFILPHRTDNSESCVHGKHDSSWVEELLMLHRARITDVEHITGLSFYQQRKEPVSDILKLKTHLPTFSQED
# ENPP1 [2] = molecular target: T1, ENPP1; assay: surface plasmon resonance; assay type: binding
# ALDH1B1 [3] = molecular target: T2, ALDH1B1 (Homo sapiens, UniProt P30837); assay: surface plasmon resonance; assay type: binding
# T2 construct: purified ALDH1B1 protein, wild type and alanine mutants
# T2 sequence (P30837 18-517): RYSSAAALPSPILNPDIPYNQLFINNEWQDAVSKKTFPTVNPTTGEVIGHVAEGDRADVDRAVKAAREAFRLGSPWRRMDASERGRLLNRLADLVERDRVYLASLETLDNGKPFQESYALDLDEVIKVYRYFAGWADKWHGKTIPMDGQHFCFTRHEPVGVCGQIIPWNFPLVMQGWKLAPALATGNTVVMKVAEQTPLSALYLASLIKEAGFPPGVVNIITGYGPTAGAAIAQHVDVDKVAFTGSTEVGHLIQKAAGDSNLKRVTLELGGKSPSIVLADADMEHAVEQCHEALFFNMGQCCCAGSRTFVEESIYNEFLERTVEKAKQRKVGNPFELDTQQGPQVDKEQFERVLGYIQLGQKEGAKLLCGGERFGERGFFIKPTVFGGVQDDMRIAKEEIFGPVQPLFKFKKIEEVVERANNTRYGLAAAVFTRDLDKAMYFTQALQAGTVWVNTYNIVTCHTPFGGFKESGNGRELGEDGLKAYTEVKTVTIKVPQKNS
# ALDH1B1 [4] = molecular target: T2, ALDH1B1; assay: in vitro enzyme activity assay; assay type: biochemical
SMILES,IC50 (ENPP1 [1]) [µM],Kd (ENPP1 [2]) [µM],Kd (ALDH1B1 [3]) [µM],IC50 (ALDH1B1 [4]) [µM]
COc1cccc(F)c1-c1nc(C(=O)Nc2ccccc2N2CCC(NS(N)(=O)=O)CC2)cn2ccnc12 [A2],2.28,1.03,,
Fc1cc(F)c2c(c1)[C@@H]1C=CC[C@@H]1[C@H](c1cccnc1)N2 [B1],,,0.0152,0.02
Fc1cc(F)c2c(c1)[C@H]1C=CC[C@H]1[C@@H](c1cccnc1)N2 [B2],,,1.21,5.57
